Laboratory results as given in publication PMC3581075 (Journal of pharmaceutical sciences, 2011).
Where a name gives a salt, the structure may show the parent alone. Read-outs that look alike come from different tables or passages of the source. One block for each molecule: values may come before it.

What was measured:
pooled rat microsomes [1] = test system: pooled rat microsomes
pooled human microsomes [2] = test system: pooled human microsomes
OATP1B3 = molecular target: T1, OATP1B3 (Homo sapiens, UniProt Q9NPD5); settings: on average; p<0.05
T1 sequence (Q9NPD5 1-702): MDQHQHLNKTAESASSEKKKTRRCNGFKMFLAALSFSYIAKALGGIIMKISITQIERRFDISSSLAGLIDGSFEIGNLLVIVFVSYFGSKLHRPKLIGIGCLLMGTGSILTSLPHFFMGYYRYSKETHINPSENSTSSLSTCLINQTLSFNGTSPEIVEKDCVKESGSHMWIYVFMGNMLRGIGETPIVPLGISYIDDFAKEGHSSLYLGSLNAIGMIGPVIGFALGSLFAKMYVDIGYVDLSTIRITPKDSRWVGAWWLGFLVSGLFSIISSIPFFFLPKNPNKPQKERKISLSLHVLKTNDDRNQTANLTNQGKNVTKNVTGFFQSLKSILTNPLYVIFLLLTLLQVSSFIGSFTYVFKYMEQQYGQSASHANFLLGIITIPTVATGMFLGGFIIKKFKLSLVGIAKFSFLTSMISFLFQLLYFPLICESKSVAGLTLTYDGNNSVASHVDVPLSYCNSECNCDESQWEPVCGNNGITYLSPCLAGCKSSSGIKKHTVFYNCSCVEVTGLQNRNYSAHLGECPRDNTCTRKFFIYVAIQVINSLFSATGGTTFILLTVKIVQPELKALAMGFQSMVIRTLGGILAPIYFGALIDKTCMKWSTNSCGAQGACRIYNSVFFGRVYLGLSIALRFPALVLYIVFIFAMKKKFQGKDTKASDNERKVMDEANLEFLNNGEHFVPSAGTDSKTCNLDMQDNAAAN

OATP2B1 = molecular target: T2, OATP2B1 (Homo sapiens, UniProt O94956); settings: on average; p<0.05
T2 sequence (O94956 1-709): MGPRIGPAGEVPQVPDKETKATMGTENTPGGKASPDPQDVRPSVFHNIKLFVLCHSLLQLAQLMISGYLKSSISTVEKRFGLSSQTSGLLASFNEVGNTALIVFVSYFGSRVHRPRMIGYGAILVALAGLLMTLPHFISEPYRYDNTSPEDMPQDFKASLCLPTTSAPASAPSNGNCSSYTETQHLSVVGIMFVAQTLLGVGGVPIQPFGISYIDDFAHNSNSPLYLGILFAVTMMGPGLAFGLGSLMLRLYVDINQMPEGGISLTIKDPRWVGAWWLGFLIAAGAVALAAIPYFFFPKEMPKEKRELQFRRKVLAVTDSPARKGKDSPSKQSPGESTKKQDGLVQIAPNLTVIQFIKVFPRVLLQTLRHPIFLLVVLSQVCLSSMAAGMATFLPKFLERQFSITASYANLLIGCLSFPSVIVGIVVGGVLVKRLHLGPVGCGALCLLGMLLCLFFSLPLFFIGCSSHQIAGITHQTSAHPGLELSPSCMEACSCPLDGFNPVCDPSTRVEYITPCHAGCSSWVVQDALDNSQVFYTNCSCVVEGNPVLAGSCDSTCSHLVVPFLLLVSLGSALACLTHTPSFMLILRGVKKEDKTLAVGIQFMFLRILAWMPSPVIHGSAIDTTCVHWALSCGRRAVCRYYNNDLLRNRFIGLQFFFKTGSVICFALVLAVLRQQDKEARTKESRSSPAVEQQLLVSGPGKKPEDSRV

rat hepatocytes [3] = settings: 2 min, rifampin 10 μM, MK-571 100 μM
rat hepatocytes [4] = test system: rat hepatocytes
[5] = classification by solubility, permeability and extent of metabolism; cited from earlier work
rat hepatocytes [6] = test system: rat hepatocytes; remark: listed apart in the source
pooled rat microsomes [7] = assay: Microsome incubations, pooled rat microsomes; settings: propranolol 10 μM, 0.5 mg/ml microsomes, 30 min, 37°C; rifampin 10 μM, quinidine 30 μM
pooled human microsomes [8] = assay: Microsome incubations, pooled human microsomes; settings: propranolol 10 μM; quinidine 30 μM
rat hepatocytes [9] = test system: rat hepatocytes; remark: listed apart in the source

Effect on metabolism of losartan in rat microsomes (pooled rat microsomes [1]): decrease in metabolism | Effect on metabolism of losartan in human microsomes (pooled human microsomes [2]): no inhibition of metabolism
Molecule: Nc1ccc(S(=O)(=O)Nc2ccnn2-c2ccccc2)cc1 [sulfaphenazole]

Molecule: CC12CCC3c4ccc(OS(=O)(=O)O)cc4CCC3C1CCC2=O (stereo not shown) [[^3H]-estrone sulfate]
Decrease of uptake in pcMV6 empty vector control vs OATP1B3 transfected cells (OATP1B3): 50% | Decrease of uptake in pcMV6 empty vector control vs OATP2B1 transfected cells (OATP2B1): 80%

Molecule: IL-6: interleukin-6, tested as uremic toxin
Inhibition of uptake of losartan in rat hepatocytes (rat hepatocytes [3]; losartan 10 μM, p<0.05, n=4): 28%

Change in AUC of the cumulative metabolite (rat hepatocytes [4]): no change in metabolite formation
Molecule: CCCCc1nc(Cl)c(CO)n1Cc1ccc(-c2ccccc2-c2nn[nH]n2)cc1 [losartan]
BDDCS class [5]: Class 2

Change of uptake of propranolol in rat hepatocytes (rat hepatocytes [3]; propranolol 10 μM, n=4): not significantly changed
Molecule: CN(C)C(=O)CCSC(SCCC(=O)O)c1cccc(/C=C/c2ccc3ccc(Cl)cc3n2)c1 (stereo not shown) [MK-571]

Change of uptake of eprosartan in rat hepatocytes compared to normal serum (rat hepatocytes [6]): no significant differences | Decrease of uptake of losartan in human hepatocytes compared to normal serum (human hepatocytes): 55% | Effect on metabolism of losartan in rat microsomes (pooled rat microsomes [1]): no change in metabolism
Molecule: CO[C@H]1/C=C/O[C@@]2(C)Oc3c(C)c(O)c4c(O)c(c(/C=N/N5CCN(C)CC5)c(O)c4c3C2=O)NC(=O)/C(C)=C\C=C\[C@H](C)[C@H](O)[C@@H](C)[C@@H](O)[C@@H](C)[C@H](OC(C)=O)[C@@H]1C [rifampin]

Molecule: CC(C)NCC(O)COc1cccc2ccccc12 (stereo not shown) [propranolol]
BDDCS class [5]: Class 1

Effect on metabolism of propranolol in rat microsomes (pooled rat microsomes [7]): inhibit metabolism | Effect on metabolism of propranolol in human microsomes (pooled human microsomes [8]): inhibited propranolol metabolism
Molecule: C=C[C@H]1C[N@@]2CC[C@H]1C[C@@H]2[C@@H](O)c1ccnc2ccc(OC)cc12 [quinidine]

Molecule: CCCCc1ncc(/C=C(\Cc2cccs2)C(=O)O)n1Cc1ccc(C(=O)O)cc1 [eprosartan]
BDDCS class [5]: Class 4

Molecule: CC[C@H](C)[C@H](NC(=O)[C@H](CC(=O)O)NC(=O)[C@H](CC(C)C)NC(=O)[C@H](Cc1cnc[nH]1)NC(=O)[C@@H]1CSSC[C@H](N)C(=O)N[C@@H](CO)C(=O)N[C@H]2CSSC[C@H](NC(=O)[C@H](CCC(=O)O)NC(=O)[C@H](CCCCN)NC(=O)[C@H](CC(=O)O)NC(=O)[C@H](CCSC)NC(=O)[C@H](CC(C)C)NC(=O)[C@H](CO)NC(=O)[C@H](CO)NC2=O)C(=O)N[C@@H](C(C)C)C(=O)N[C@@H](Cc2ccc(O)cc2)C(=O)N[C@@H](Cc2ccccc2)C(=O)N1)C(=O)N[C@H](C(=O)N[C@@H](Cc1c[nH]c2ccccc12)C(=O)O)[C@@H](C)CC [endothelin]
Inhibition of uptake of losartan in rat hepatocytes (rat hepatocytes [9]): 22%
